# In PMC12678798, “Discovery of an allosteric binding site for anthraquinones at the human P2X4 receptor” (Nature Communications, 2025):
# Positions count from the first letter of the chain named. Like-named read-outs stand apart in the source and are kept apart here.
# What was measured:
# [1] = biological target: T1, chimeric P2X4(P2X2) receptor c6^N208-S216 (Homo sapiens, UniProt Q99571, I209R/N208D/S216R/T211D/T212G); design: expressed in transfected cells; gene synthesis (Geneart), pLVX-IRES-mCherry; method as in ref 19 (supplement); conditions: read-out: ATP EC50, published value, ref 19 (supplement); cited from earlier work
# T1 sequence (Q99571 1-388 N208D/I209R/T211D/T212G/S216R): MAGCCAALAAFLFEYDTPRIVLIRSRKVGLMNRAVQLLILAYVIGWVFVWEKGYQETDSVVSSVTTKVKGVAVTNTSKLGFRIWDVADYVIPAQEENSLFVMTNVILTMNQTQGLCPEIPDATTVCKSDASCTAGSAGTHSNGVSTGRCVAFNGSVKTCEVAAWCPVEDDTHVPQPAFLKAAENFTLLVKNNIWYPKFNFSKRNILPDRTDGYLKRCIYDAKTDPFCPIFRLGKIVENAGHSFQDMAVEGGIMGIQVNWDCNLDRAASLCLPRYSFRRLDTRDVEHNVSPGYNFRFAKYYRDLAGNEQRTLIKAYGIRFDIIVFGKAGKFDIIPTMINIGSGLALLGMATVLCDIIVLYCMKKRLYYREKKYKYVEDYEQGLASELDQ
# [2] = biological target: T1, chimeric P2X4(P2X2) receptor c6^N208-S216; test: cell-based
# human wt P2X4 receptor = biological target: T2, human wt P2X4 receptor (Homo sapiens, UniProt Q99571); test: ATP-induced calcium influx assay, human wt P2X4 receptor in 1321N1 astrocytoma cells; format: cell-based; conditions: wt hP2X4; calcium influx
# T2 construct: expressed in transfected cells
# T2 sequence (Q99571 1-388): T1 sequence (Q99571 1-388 N208D/I209R/T211D/T212G/S216R) with D208N, R209I, D211T, G212T, R216S
# [3] = biological target: chimeric P2X4(P2X2) receptor c2-c5^C116-T186 (Homo sapiens, UniProt Q99571, A122H/A137L/A177Q/A181M/D121V/DEL149-175/E183P/G138D/H140L/INS118S/INS148CVPYYQGPSKTCEVFGWCPVEDGASV/INS179G/K127L/K180T/P120R/P176S/S131D/S136E/S141G/S145R/T123N/T124A/T133V/T139M/V125T/V144L); test: cell-based
# [4] = biological target: T3, P2X4-Q308T receptor mutant (Homo sapiens, UniProt Q99571, Q308T); test: cell-based
# T3 sequence (Q99571 1-388 Q308T): T1 sequence (Q99571 1-388 N208D/I209R/T211D/T212G/S216R) with D208N, R209I, D211T, G212T, R216S, Q308T
# [5] = biological target: T4, chimeric P2X4(P2X2) receptor c10^R301-Q308 (Homo sapiens, UniProt Q99571, A304N/D302K/DEL301-301/E307T/L303I/N306T/Q308T); design: method as in ref 19 (supplement); conditions: read-out: ATP EC50, published value, ref 19 (supplement); cited from earlier work
# T4 construct: expressed in transfected cells; gene synthesis (Geneart), pLVX-IRES-mCherry (bicistronic, mCherry not fused)
# T4 sequence (Q99571 with tags, fused parts or gaps DEL301-301/D302K/L303I/A304N/N306T/E307T/Q308T): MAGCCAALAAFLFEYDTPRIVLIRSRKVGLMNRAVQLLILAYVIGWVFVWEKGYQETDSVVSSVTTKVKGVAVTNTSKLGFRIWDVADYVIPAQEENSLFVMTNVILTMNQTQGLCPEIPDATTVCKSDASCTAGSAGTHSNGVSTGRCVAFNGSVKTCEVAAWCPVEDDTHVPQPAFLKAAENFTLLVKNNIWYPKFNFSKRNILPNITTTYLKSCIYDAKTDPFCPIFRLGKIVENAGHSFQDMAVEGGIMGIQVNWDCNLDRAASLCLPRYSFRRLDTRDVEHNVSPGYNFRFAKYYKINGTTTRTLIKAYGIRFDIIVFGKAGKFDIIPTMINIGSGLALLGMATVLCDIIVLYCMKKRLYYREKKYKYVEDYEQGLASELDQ
# human wt P2X2 receptor = biological target: T5, human wt P2X2 receptor (Homo sapiens, UniProt Q9UBL9); test: ATP-induced calcium influx assay, human wt P2X2 receptor in 1321N1 astrocytoma cells; format: cell-based
# T5 construct: expressed in transfected cells
# T5 sequence (Q9UBL9 1-471): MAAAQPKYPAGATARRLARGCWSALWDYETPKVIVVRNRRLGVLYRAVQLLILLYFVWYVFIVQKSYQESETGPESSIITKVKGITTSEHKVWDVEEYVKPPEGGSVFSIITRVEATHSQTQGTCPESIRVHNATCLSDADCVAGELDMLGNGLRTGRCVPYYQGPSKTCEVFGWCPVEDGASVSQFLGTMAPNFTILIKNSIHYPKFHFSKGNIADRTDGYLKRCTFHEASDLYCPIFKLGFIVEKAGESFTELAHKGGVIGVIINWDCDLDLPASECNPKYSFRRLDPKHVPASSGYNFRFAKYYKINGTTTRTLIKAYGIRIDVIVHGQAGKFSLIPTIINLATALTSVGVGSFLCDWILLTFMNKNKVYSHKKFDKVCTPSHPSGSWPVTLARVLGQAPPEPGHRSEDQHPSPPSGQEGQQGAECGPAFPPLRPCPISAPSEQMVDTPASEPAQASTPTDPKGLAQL
# Chain of chimeric P2X4(P2X2) receptor c2-c5^C116-T186 (Q99571 with tags, fused parts or gaps isoform Q99571-3 with the stated changes): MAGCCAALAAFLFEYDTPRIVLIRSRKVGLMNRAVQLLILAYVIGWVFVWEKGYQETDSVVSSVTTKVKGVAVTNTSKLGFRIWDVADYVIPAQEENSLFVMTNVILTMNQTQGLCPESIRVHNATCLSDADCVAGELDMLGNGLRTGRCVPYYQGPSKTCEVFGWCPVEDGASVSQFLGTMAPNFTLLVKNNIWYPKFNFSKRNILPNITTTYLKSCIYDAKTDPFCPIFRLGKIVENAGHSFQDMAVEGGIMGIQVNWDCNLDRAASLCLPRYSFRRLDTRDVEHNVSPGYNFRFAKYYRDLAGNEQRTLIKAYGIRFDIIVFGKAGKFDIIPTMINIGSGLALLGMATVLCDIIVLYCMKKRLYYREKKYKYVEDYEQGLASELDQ
structure (smiles),measurement,setting,value
"Nc1ncnc2c1ncn2[C@@H]1O[C@H](COP(=O)(O)OP(=O)(O)OP(=O)(O)O)[C@@H](O)[C@H]1O [ATP, Adenosine 5′-triphosphate]",EC50,[1],572 nM
same,EC50,[2],589 nM
same,EC50,human wt P2X4 receptor,357 nM
same,EC50,[3],2290 nM
same,EC50,"[4]; ATP EC50, P2X4-Q308T",295 nM
same,EC50,"[4]; ATP pEC50 ± SEM, P2X4-Q308T",275 nM
same,EC50,[5],862 nM
same,EC50,"human wt P2X2 receptor; ATP EC50, wt hP2X2, calcium influx",637 nM
same,EC50,"human wt P2X2 receptor; ATP pEC50 ± SEM, wt hP2X2",759 nM
